Measured values taken from US20070010548A1, “Compounds having inhibitive activity of phosphatidylinositol 3-kinase and methods of use thereof” (ZENTARIS GmbH, priority 2003, published 2007).
Read-outs that look alike come from different tables or passages of the source.

Experiments:
[1] = tested on: tumor cells altered in PI 3-K/PTEN; experiment: Cellular growth inhibition assays on tumor cells altered in PI 3-K/PTEN; assay type: cell-based; conditions: for IC50: approximate, read-out: Approx. mIC50 in cellular assays
Protocol: (§1) The ovarian cancer cell line SKOV3 is not altered in PI 3-K signaling and should be less sensitive to the anti-proliferative effects produced by treatment with PI 3-K inhibitors, while the OVCAR3 cell line, which is altered in PI 3-K signaling, via amplification of PI 3-K activity, should be sensitive. SKOV3 cells were seeded in 96-well cell culture plates (Greiner) at a density of 20,000 cells per well in McCoys 5A media (GibcoBRL) with 10% fetal calf serum and 20 mM L-glutamine. OVCAR3 cells were seeded at a density of 15,000 cells per well in RPMI 1640 media (GibcoBRL) containing 20 mM 1-glutamine, 0.01 ng/ml bovine insulin, 10 mM Hepes pH 7.4, 1 mM sodium pyruvate, 2.5 g/L glucose, and 20% fetal calf serum. After 24 hours, compounds were added to cell media to a final concentration of 1 μM, and the cells were grown in the presence of the compounds for 48 hours, in media containing 0.5% fetal calf serum. Viability was determined using a MTT cell proliferation assay (R and D Systems) and comparison to DMSO alone controls (100% viability). Compounds which result in reduced viability may act either by inhibiting cell proliferation or by inducing apoptosis (programmed cell death).
Selected compounds were evaluated against paired ovarian cancer cell lines at a range of concentrations to determine effective concentrations for growth inhibition.
MDA-MB-468 and MDA-MB-231 cells were seeded in 96-well cell culture plates (Greiner) at a density of 20,000 cells per well in RMPI media (GibcoBRL) with 10% fetal calf serum and 20 mM L-glutamine. After 24 hours, compounds were added to cell media to a final concentrations ranging from 10 nM to 100 μM, and the cells were grown in the presence of the compounds for 48 hours in RMPI media containing 0.5% fetal calf serum and 20 mM L-glutamine. Viability was determined using a MTT cell proliferation assay (R and D Systems) and comparison to DMSO alone controls (100% viability). Compounds which result in reduced viability may act either by inhibiting cell proliferation or by inducing apoptosis (programmed cell death). […] Selected compounds were evaluated against the paired breast cancer cell lines at a range of concentrations to determine effective concentrations for growth inhibition.
Table 3 summarizes the data for several compounds of this structural group, including the IC50 for inhibition of enzyme activity in vitro, cellular mIC50 and anti-proliferative activity against tumor cells altered in PI 3-K mediated signaling, and effects on cellular levels of phospho-Akt.

[2] = biological target: T1, PI 3-K alpha (Homo sapiens, UniProt P42336); experiment: PI 3-K activity assay, IC50 determination (AlphaScreen luminescent or Fluorescence Polarization); assay type: biochemical; conditions: inhibition of enzyme activity in vitro
T1 construct: made in house; host or cells: Sf9 cells, baculovirus expression system; constructs from the lab of Dr. Alex Toker, Harvard University
Protocol: Recombinant heterodimeric PI 3-K alpha, consisting of a p110 catalytic subunit and a GST-tagged p85 regulatory subunit, was expressed in Sf9 cells using a baculoviras expression system. Expression constructs were obtained from the lab of Dr. Alex Toker, Harvard University. The method is well known to those skilled in the art and is also described in Stoyanov et al., Science 269, 690-693 (1995).and Stoyanova et al., Biochem. J. 324 :489-495. (1997).
PI 3-kinase reactions were performed in a reaction buffer containing 5 mM HEPES, pH 7, 2.5 mM MgCl2, and 25 μM ATP, containing 50 ng of recombinant PI 3-K with 10 picomoles of diC8 PI(4,5)P2 (Echelon Biosciences) as the substrate. The reactions were allowed to proceed at room temperature for 1-3 hours, then quenched by the addition of EDTA to a final concentration of 10 mM. The final reaction volumes were 10 μl. The compounds to be tested for inhibition were added to a final concentration of 1 μM from stocks in DMSO. The final concentration of DMSO was 1%.
Conversion of the substrate to PI(3,4,5)P3 was determined using a competition assay using Amplified Luminescent Proximity Homogeneous Assay (ALPHA®) technology developed by Perkin Elmer. 0.25 picomoles of recombinant GST-Grp1-PH domain protein and 0.25 picomoles of biotinylated diC6 PI(3,4,5)P3 (Echelon Biosciences) were added to each reaction mixture. Donor and Acceptor beads from the AlphaScreen® GST (Glutathione-S-Transferase) Detection Kit (PerkinElmer) were added to a final concentration of 20 μg/ml. The final volume was 25 μl. The reactions were incubated at 37° C. for two hours, and the luminescent signal was read on a Fusion α microplate reader. Percent inhibition of enzyme activity was determined by comparison to no enzyme (100% inhibition) and DMSO alone (0% inhibition) controls.
An alternate method used for detecting substrate conversion to PI(3,4,5)P3 was a competitive Fluorescence Polarization assay. 125 picomoles of recombinant GST-Grp1-PH domain protein and 0.25 picomoles of TAMRA-I(1,3,4,5)P4 (Echelon Biosciences) were added to each reaction mixture The final volume was 25 μl. Polarization values were measured on a microplate reader using 550 nm excitation/580 nm polarizing emission filters. BODIPY-TMR-I(1,3,4,5)P4 or BODIPY-TMR-PI(3,4,5)P3 could substitute as the fluorescent tracers in this assay. Percent inhibition of enzyme activity was determined by comparison to no enzyme (100% inhibition) and DMSO alone (0% inhibition) controls.
A library of potential PI 3-K inhibitors was tested for activity against PI 3-K alpha in the following manner. From the active compounds identified, twelve were selected as representatives from different chemical groups present in the library and subjected to further analysis. IC50 values were determined for the selected compounds of the present invention. Enzyme activity assays were performed as previously described, in the presence of a range of compound concentrations to allow determination of IC50 values. Enzyme activity and percent inhibition was determined using the AlphaScreen® luminescent assay or a Fluorescence Polarization assay as previously described. These inhibitors may also show activity against other PI 3-K isoforms, including PI 3-K beta, gamma, and delta.

[3] = tested on: SKOV3 cells; experiment: MTT cell proliferation/viability assay, SKOV3 ovarian cancer cells; assay type: cell-based; conditions: Homo sapiens
Protocol: as §1
Many of these also show similar selective effects on cell growth. Table 2 summarizes the results of two separate cell proliferation experiments for selected compounds of the present invention.

[4] = SK-OV-3, 48 hours, MTT, DMSO alone controls = 100% viability, Trial 1, read-out: Trial 1 SKOV-3 (viability)
[5] = SK-OV-3, 48 hours, MTT, DMSO alone controls = 100% viability, Trial 2, read-out: Trial 2 SKOV-3 (viability)
[6] = SK-OV-3, average of Trial 1 and Trial 2, 48 hours, read-out: Average SKOV3 (viability)

T1 sequence (P42336 whole entry, species assumed): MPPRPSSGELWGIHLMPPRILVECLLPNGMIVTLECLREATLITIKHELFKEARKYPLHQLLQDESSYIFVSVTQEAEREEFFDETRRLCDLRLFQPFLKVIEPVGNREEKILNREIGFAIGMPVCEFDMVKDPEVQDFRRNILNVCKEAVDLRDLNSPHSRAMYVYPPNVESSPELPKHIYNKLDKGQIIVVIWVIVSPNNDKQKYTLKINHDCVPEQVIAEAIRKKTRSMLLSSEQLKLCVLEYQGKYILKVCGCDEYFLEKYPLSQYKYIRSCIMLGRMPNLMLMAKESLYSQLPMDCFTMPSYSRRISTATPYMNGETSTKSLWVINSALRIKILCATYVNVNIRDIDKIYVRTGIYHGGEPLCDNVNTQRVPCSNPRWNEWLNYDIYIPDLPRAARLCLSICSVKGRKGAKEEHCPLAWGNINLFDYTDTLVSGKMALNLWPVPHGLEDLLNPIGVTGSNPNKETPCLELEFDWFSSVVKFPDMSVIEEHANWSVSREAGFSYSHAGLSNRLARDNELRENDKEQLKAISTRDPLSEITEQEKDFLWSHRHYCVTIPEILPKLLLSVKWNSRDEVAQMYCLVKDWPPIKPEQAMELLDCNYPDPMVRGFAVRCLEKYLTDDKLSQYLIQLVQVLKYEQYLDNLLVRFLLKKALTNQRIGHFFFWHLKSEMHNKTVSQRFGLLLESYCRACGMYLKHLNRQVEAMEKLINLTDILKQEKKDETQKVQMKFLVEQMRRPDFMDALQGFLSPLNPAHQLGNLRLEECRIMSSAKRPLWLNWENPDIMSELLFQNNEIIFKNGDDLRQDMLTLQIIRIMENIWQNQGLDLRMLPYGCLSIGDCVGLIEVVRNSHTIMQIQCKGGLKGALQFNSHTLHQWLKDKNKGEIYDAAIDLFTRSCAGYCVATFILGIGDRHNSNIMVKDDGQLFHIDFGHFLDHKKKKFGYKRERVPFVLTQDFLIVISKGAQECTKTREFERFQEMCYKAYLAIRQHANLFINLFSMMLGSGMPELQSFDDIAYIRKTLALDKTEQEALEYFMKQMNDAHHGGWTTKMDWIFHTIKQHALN
T1 sequence (P27986 whole entry partner, species assumed): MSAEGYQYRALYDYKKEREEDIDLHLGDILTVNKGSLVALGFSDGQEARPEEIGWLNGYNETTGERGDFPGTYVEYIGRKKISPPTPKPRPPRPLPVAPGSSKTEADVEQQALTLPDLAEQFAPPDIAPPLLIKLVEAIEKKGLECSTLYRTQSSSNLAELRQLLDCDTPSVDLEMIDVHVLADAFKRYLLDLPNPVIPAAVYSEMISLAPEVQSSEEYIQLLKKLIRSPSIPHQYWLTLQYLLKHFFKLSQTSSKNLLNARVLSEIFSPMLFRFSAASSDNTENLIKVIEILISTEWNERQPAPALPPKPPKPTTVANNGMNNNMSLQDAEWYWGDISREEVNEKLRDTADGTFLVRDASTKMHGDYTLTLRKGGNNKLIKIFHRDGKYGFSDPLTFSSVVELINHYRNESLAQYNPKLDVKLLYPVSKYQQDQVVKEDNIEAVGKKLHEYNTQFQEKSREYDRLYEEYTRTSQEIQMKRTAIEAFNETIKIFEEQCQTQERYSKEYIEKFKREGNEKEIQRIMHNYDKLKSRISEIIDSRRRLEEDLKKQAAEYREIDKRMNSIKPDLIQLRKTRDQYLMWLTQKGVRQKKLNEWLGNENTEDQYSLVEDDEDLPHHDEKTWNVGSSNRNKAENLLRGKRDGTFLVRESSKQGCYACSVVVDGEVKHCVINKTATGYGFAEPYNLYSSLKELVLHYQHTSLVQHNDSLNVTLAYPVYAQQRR

`CC1(C)CC(=O)C2=C(C1)Nc1c(c(C(C)(C)C)nn1C(C)(C)C)C2c1ccc(OCc2ccccc2)c(OCc2ccccc2)c1` (stereo not drawn) [Compound 963985] was tested, and the “Anti-proliferative effects on tumor cells altered in PI 3-K/PTEN” value (shortened to “Anti-proliferative effects”) [1] was “Yes”, the IC50 [1] was 1 µM and the IC50 [2] was 0.5 µM.

`Cc1ccc(C2C3=C(CC(C)(C)CC3=O)Nc3c2c(C(C)(C)C)nn3-c2ccc(C)cc2)cc1` (stereo not drawn) [Compound 964028, 3-t-butyl-4-(4-methylphenyl)-7,7-dimethyl-1-(4-methylphenyl)-4,7,8,9-tetrahydro-1H-pyrazolo[3,4-b]quinolin-5(6H)-one] was tested, and the “Anti-proliferative effects” value [1] was “Yes”, the IC50 [1] was 10 µM and the IC50 [2] was 1 µM. It also gave a viability at 1 µM [3, 4] of 100%, a viability at 1 µM [3, 5] of 99.1% and a viability at 1 µM [3, 6] of 99.5%.

`COc1ccc(-n2nc(C(C)(C)C)c3c2NC2=C(C(=O)CC(C)(C)C2)C3c2ccccc2Cl)cc1` (stereo not drawn) [Compound 964076, 3-t-butyl-4-(2-chlorophenyl)-7,7-dimethyl-1-(4-methoxyphenyl)-4,7,8,9-tetrahydro-1H-pyrazolo[3,4-b]quinolin-5(6H)-one] was tested, and the “Anti-proliferative effects” value [1] was “Yes”, the IC50 [1] was 10 µM and the IC50 [2] was 3 µM. The viability at 1 µM [3, 4] was 100%, the viability at 1 µM [3, 5] was 92.9% and the viability at 1 µM [3, 6] was 96.5%.

With `COc1ccc(OC)c(C2C3=C(CC(C)(C)CC3=O)Nc3c2c(C(C)(C)C)nn3-c2ccc(C)cc2C)c1` (stereo not drawn) [Compound 964232] the “Anti-proliferative effects” value [1] was “Yes”, the IC50 [1] was under 20 µM and the IC50 [2] was 5 µM. It also gave a viability at 1 µM [3, 4] of 98%, a viability at 1 µM [3, 5] of 100% and a viability at 1 µM [3, 6] of 99%.

For `COc1ccccc1C1C2=C(CC(C)(C)CC2=O)Nc2c1c(C(C)(C)C)nn2-c1ccc(Cl)c(C)c1` (stereo not drawn) [Compound 964247], the “Anti-proliferative effects” value [1] was “Yes”, the IC50 [1] was under 20 µM and the IC50 [2] was 7 µM. It also gave a viability at 1 µM [3, 4] of 100%, a viability at 1 µM [3, 5] of 100% and a viability at 1 µM [3, 6] of 100%.

In the case of `CC1(C)CC(=O)C2=C(C1)Nc1c(c(C(C)(C)C)nn1-c1ccc(Cl)c(Cl)c1)C2c1cccc(OCc2ccccc2)c1` (stereo not drawn) [Compound 964260], the “Anti-proliferative effects” value [1] is reported as “Yes”, the IC50 [1] is reported as under 20 µM and the IC50 [2] is reported as 8 µM. The viability at 1 µM [3, 4] was 93%, the viability at 1 µM [3, 5] was 85% and the viability at 1 µM [3, 6] was 89%.

In the case of `CC1(C)CC(=O)C2=C(C1)Nc1c(c(-c3ccccc3)nn1-c1cccc(F)c1)C2c1ccc(C(F)(F)F)cc1` (stereo not drawn) [Compound 964661], the “Anti-proliferative effects” value [1] is reported as “Yes”, the IC50 [1] is reported as under 20 µM and the IC50 [2] is reported as 8 µM. For the same molecule, the viability at 1 µM [3, 4] was 99%, the viability at 1 µM [3, 5] was 77.1% and the viability at 1 µM [3, 6] was 88%.
